# Assay results: patent publication US20110070258A1, “METHOD OF SLOWING THE AGING PROCESS BY ACTIVATING SIRTUIN ENZYMES” (Polifenoles Naturales, S.L., priority 2009, published 2011)
# Assays:
# [1] = Energy expenditure by indirect calorimetry in obese subjects (dose-response clinical trial); assay type: in vivo, human; details: for Energy Expenditure, Baseline: n = 4; for Energy Expenditure, Baseline / Energy Expenditure, 2 weeks / Energy Expenditure, 5 weeks / Energy Expenditure, 10 weeks / Energy Expenditure, 16 weeks / Total Energy Expenditure, to (16 weeks) / Total Energy Expenditure, From (baseline) / Change in Total Energy Expenditure, Net: NAFLD; for Change in Total Energy Expenditure, Net: baseline to 16 weeks
# Description: Energy expenditure rate (EER) was measured in patients by indirect calorimetry. Oxygen was measured with an electrochemical oxygen sensor, and carbon dioxide was measured with an infrared carbon dioxide sensor (Ametec Carbon Dioxide Analyzer). Before each measurement, the instrument was calibrated with a mixture of O2 and CO2 gases. Rates of oxygen consumption (O2) and carbon dioxide production (CO2) were calculated and printed out at 1-min intervals. Energy expenditure was derived from O2 and CO2 values.
# Obese subjects diagnosed with NAFLD and with apparently healthy liver (HL) were matched in pairs based on age, body weight and body fat mass and were randomly divided into Experimental NAFLD group (n=36), Placebo NAFLD (n=36), Experimental HL (n=19) and Placebo-HL group (n=19). Subjects were randomly assigned, in equal numbers, to the phytomedicine experimental groups and the Placebo control group, using the Simple Randomization Procedure. Their daily dietary intake was restricted to 1800±100 kcals, of which 50±5% was in the form of carbohydrates, 30±5% from protein, and 20±5% from fat. Subjects were also instructed to consume all the foods and beverages designated by dieticians and provided by the Institute, and to eat no other food or high calories beverages. […] During the clinical phase, subjects were required to visit a designated hospital three times a week for physiological and biochemical analysis. Institute provided all foods and beverages by designated dieticians and labeled as B, L, and D for breakfast, lunch and dinner, respectively.
# The brown marine vegetable extract was suspended in 100 mg cold-pressed pomegranate seed oil. The pomegranate seed oil was standardized to contain a minimum of 70% punicic acid, for a total weight of 200 mg/capsule. The content of fucoxanthin in Experimental Sample (Xanthigen) was analyzed using high performance liquid chromatography method, and the fatty acids were analyzed by Gas Chromatography method. The HPLC profile of the brown marine vegetable extract is shown in FIG. 2A, along with an HPLC chromatogram of pure fucoxanthin for comparison in FIG. 2B.
# Energy expenditure (EE) and substrate oxidations were measured by indirect calorimetry as described previously (Ranneries et al., 1998). Oxygen was measured with an electrochemical oxygen sensor, and carbon dioxide was measured by an infrared carbon dioxide sensor (Ametec Carbon Dioxide Analyzer). Calculations of EE and substrate oxidation rates were performed as previously described (Astrup et al., 1991). Protein oxidation was assumed to be constant and amounting to 15% of EE. […] The reliability was assessed by the coefficient of variation on resting energy expenditure repeated every week.
# Sirt1 = Sirt1 expression by Western Blot in differentiated 3T3-L1 adipocytes; assay type: cell-based, mouse
# Description: The effect of fucoxanthin/punicic acid mixtures on Sirt1 expression in murine cells was studied. Mouse 3T3-L1 pre-adipocytes purchased from the American Type Culture Collection (Rockville, Md.) were grown in Dubecco's modified Eagle's medium (DMEM) (Gibco BRL, Grand Island, N.Y.) supplemented with 2 mM glutamine (GIBCO BRL), 1% penicillin/streptomycin (10000 units of penicillin/mL and 10 mg streptomycin/mL) and 10% fetal bovine serum at 37° C. under a humidified 5% CO2 atmosphere. For differentiation of 3T3-L1 pre-adipocytes, cells were seeded into 6-well culture plates (2×10^4/mL) and cultured as described above. […] The fucoxanthin extract used in this study of Sirt1 expression in murine cells was an extract of the complete plant of Undaria […]. The extract contains 0.8% by weight fucoxanthin and 30% by weight marine vegetable oil. The fucoxanthin extract used may further contain ≦10.0 wt. % palm oil. The pomegranate seed oil used in this study contains 70 wt. % punicic acid, and is an extract of the seeds of the Punica granatum plant. […], the fucoxanthin/punicic acid mixture used in this study, contains 50 wt. % of the fucoxanthin extract, and 50 wt. % of the pomegranate seed oil. […] The total proteins are measured by Bio-Rad Protein Assay (Bio-Rad Laboratories, Munich, Germany). […]
structure (smiles),measurement,setting,value
"CC(=O)O[C@H]1CC(C)(C)C(=C=C/C(C)=C/C=C/C(C)=C/C=C/C=C(C)/C=C/C=C(\C)C(=O)C[C@@]23O[C@]2(C)C[C@@H](O)CC3(C)C)[C@](C)(O)C1 [Fucoxanthin, fucoxanthin]",increase in daily energy expenditure rate,[1]; 25 mg fucoxanthin alone,1152 ± 290 kJ/day
same,"Energy Expenditure, Baseline",[1]; Fucoxanthin 10 mg per day,5.82 ± 0.18 kJ/min
same,"Energy Expenditure, 2 weeks",[1]; Fucoxanthin 10 mg per day,5.69 ± 0.21 kJ/min
same,"Energy Expenditure, 5 weeks",[1]; Fucoxanthin 10 mg per day,5.93 ± 0.15 kJ/min
same,"Energy Expenditure, 10 weeks",[1]; Fucoxanthin 10 mg per day,5.69 ± 0.21 kJ/min
same,"Energy Expenditure, 16 weeks",[1]; Fucoxanthin 10 mg per day,5.98 ± 0.18 kJ/min
same,"Total Energy Expenditure, to (16 weeks)",[1]; Fucoxanthin 10 mg per day,8611 kJ/24 h
same,"Total Energy Expenditure, From (baseline)",[1]; Fucoxanthin 10 mg per day,8381 kJ/24 h
same,"Change in Total Energy Expenditure, Net","[1]; Fucoxanthin 10 mg per day, NS vs placebo",Net 230 ± 147 kJ/24 h
same,"Energy Expenditure, Baseline",[1]; Fucoxanthin 15 mg per day,5.85 ± 0.27 kJ/min
same,"Energy Expenditure, 2 weeks",[1]; Fucoxanthin 15 mg per day,5.89 ± 0.14 kJ/min
same,"Energy Expenditure, 5 weeks",[1]; Fucoxanthin 15 mg per day,5.98 ± 0.17 kJ/min
same,"Energy Expenditure, 10 weeks",[1]; Fucoxanthin 15 mg per day,6.11 ± 0.21 kJ/min
same,"Energy Expenditure, 16 weeks",[1]; Fucoxanthin 15 mg per day,6.39 ± 0.17 kJ/min
same,"Total Energy Expenditure, to (16 weeks)",[1]; Fucoxanthin 15 mg per day,9202 kJ/24 h
same,"Total Energy Expenditure, From (baseline)",[1]; Fucoxanthin 15 mg per day,8424 kJ/24 h
same,"Change in Total Energy Expenditure, Net","[1]; Fucoxanthin 15 mg per day, p < 0.05 vs placebo",Net 778 ± 260 kJ/24 h
same,"Energy Expenditure, Baseline",[1]; Fucoxanthin 25 mg per day,5.92 ± 0.16 kJ/min
same,"Energy Expenditure, 2 weeks",[1]; Fucoxanthin 25 mg per day,6.02 ± 0.23 kJ/min
same,"Energy Expenditure, 5 weeks",[1]; Fucoxanthin 25 mg per day,5.92 ± 0.27 kJ/min
same,"Energy Expenditure, 10 weeks",[1]; Fucoxanthin 25 mg per day,6.29 ± 0.31 kJ/min
same,"Energy Expenditure, 16 weeks",[1]; Fucoxanthin 25 mg per day,6.72 ± 0.22 kJ/min
same,"Total Energy Expenditure, to (16 weeks)",[1]; Fucoxanthin 25 mg per day,9677 kJ/24 h
same,"Total Energy Expenditure, From (baseline)",[1]; Fucoxanthin 25 mg per day,8525 kJ/24 h
same,"Change in Total Energy Expenditure, Net","[1]; Fucoxanthin 25 mg per day, p < 0.05 vs placebo",Net 1152 ± 290 kJ/24 h
same,"Energy Expenditure, Baseline",[1]; Fucoxanthin 50 mg per day,6.04 ± 0.24 kJ/min
same,"Energy Expenditure, 2 weeks",[1]; Fucoxanthin 50 mg per day,5.91 ± 0.31 kJ/min
same,"Energy Expenditure, 5 weeks",[1]; Fucoxanthin 50 mg per day,6.32 ± 0.22 kJ/min
same,"Energy Expenditure, 10 weeks",[1]; Fucoxanthin 50 mg per day,6.92 ± 0.31 kJ/min
same,"Energy Expenditure, 16 weeks",[1]; Fucoxanthin 50 mg per day,7.37 ± 0.35 kJ/min
same,"Total Energy Expenditure, to (16 weeks)",[1]; Fucoxanthin 50 mg per day,10613 kJ/24 h
same,"Total Energy Expenditure, From (baseline)",[1]; Fucoxanthin 50 mg per day,8698 kJ/24 h
same,"Change in Total Energy Expenditure, Net","[1]; Fucoxanthin 50 mg per day, p < 0.001 vs placebo",Net 1915 ± 246 kJ/24 h
same,EER,[1]; fucoxanthin dose of 1.6 mg per se,not effective per se
same,"minimum effective dose (increase of EER), stand alone","[1]; obese subjects, stand alone",2.4 mg
"CCCC\C=C/C=C/C=C\CCCCCCCC(=O)O [punicic acid, 9-cis, 11-trans conjugated linolenic acid (9c,11t,13c-CLNA)]",Effect on Sirt1 protein levels / expression,Sirt1,suppresses Sirt1 expression
